{"source": "paper PMC12566971", "about": "“Polyprenylated Acylphloroglucinols from Hypericum rochelii and Hypericum olympicum—Cytotoxic Effects on Non-Tumorigenic Cell Lines and Antibacterial Potential” (Pharmaceuticals, 2025)", "key": {"CCL-1": {"test_system": "CCL-1", "assay": "MTT assay for cytotoxicity", "assay_type": "cell-based, murine", "procedure": "(§1) The MTT assay was performed according to Annex C, ISO 10993-5 [56] as in [116]. The panel of non-tumorigenic cell lines consisted of one murine (CCL-1 fibroblasts, which are recommended as a standard for cytotoxicity evaluation in Annex C of ISO 10993-5 [56]) and four human cell lines—HaCaT (immortalized epidermal keratinocytes), HGF (gingival fibroblasts), HEK-293 (embryonic cells from kidney epithelium), and HEPG2 (hepatoblastoma). Although technically a cancer cell line, HEPG2 is non-tumorigenic and retains many hepatocyte-related features in its proteome and a high degree of morphological and functional differentiation, also being a stage one hepatoblastoma.\n(§2) CCL-1 was purchased from ATCC and HaCaT and HGF were bought from CLS Cell Lines Service (GmbH, Eppelheim, Germany). HEK-293 and HEPG2 were obtained from DSMZ. The cell culture medium for HaCaT and HEPG2 was Dulbecco’s Modified Eagle Medium (DMEM) with 4.5 g/L glucose (DMEM-HA). For HGF it was DMEM/F-12 (DMEM-12-A, a 1:1 mixture of DMEM and Ham’s F-12 medium). The cell medium for CCL-1 and HEK-293 was Eagle’s Minimum Essential Medium (MEM) (MEM-A). Ten percent heat-inactivated fetal bovine serum (FBS) was added to all media but to the one for the CCL-1 cells, to which 10% heat-inactivated horse serum was added. All media were supplemented with 2 mM L-glutamine and Penicillin/Streptomycin (Pen/Strep, 100×). The cell culture media, sera, and additives were from Capricorn Scientific (Düsseldorf, Germany).\n(§3) GraphPad Prism software version 9 (GraphPad Software Inc., San Diego, CA, USA) was used to calculate the IC50 values from the MTT assays as in [116], as well as the MTC values, and the ELISA standard curves. The MTC values are, according to ISO 10993-5, the maximum concentration at which at least 70% of the cells are viable (nonlin fit, range)."}, "CCL-1 cells": {"test_system": "CCL-1 cells", "assay": "Colony-forming unit assay", "assay_type": "cell-based, murine", "details": "for Percentage of colonies, CCL-1: untreated control = 100%", "procedure": "(§4) The CFU was also performed according to ISO 10993-5 [56]. Briefly, the cell lines were seeded at a concentration like for the MTT assay in 6-well plates, treated with the chosen agents and left for a 48 h exposure. Then, the cells were trypsinized, and pre-calculated 20 to 100 µL from the cell suspension was added to a sterile Roswell Park Memorial Institute (RPMI) medium (RPMI-A, Capricorn Scientific), containing 20% of the respective cell culture medium for each cell line but with a final concentration of FBS and L-glutamine of 40–42% and 0.8–1.2 mM, respectively, 0.2% NaHCO3 (S6297, Merck Sigma-Aldrich, Saint Louis, MI, USA), and 0.8% methylcellulose (M0512, Merck Sigma-Aldrich) for viscosity. The viscous cell solution was vortexed for 10 s and dispensed in an equal number of cells per well in 6-well plates (1.2 mL per well) in triplicate for each concentration of treatment. HaCaT and HEK-293 were seeded at a concentration of 2500 cells per mL, CCL-1 and HEPG2—2000 cells per mL, and HGF—1000 cells per mL. The plates were incubated for 6 to 10 days, and when the colonies reached 20 to 50 cells per colony, 100 µL MTT salt solution was added to each well. After half an hour, the stained colonies were counted manually using a microscope."}, "S. aureus biofilm": {"test_system": "S. aureus biofilm", "assay": "Biofilm assay", "assay_type": "cell-based, Staphylococcus aureus", "procedure": "The biofilm assay was performed according to the protocol of Stepanović [138], as already described."}, "tumor cell lines": {"test_system": "tumor cell lines", "details": "ref [29]; cited from earlier work"}, "[1]": {"test_system": "Human gingival fibroblasts (HGF)", "assay": "MTT assay for cytotoxicity", "assay_type": "cell-based", "details": "for IC50: Homo sapiens, Fibroblast", "procedure": "as §1, §2, §3"}, "[2]": {"test_system": "Human embryonic kidney-293 (HEK-293)", "assay": "MTT assay for cytotoxicity", "assay_type": "cell-based", "details": "for IC50: Homo sapiens, HEK293", "procedure": "as §1, §2, §3"}, "[3]": {"test_system": "Limosilactobacillus fermentum", "assay": "MIC evaluation on lactobacilli (broth microdilution)", "assay_type": "cell-based", "procedure": "(§5) The MIC and MBC assessment on the pathogenic bacteria and the candidate probiotic lactic acid bacteria was carried out by the broth microdilution assay (BMD) and the agar plate assay, respectively, as described in [4]. The metabolic (dehydrogenase) activity of the lactic acid bacteria was assessed as described in [4]. Lactobacilli of different origins from the collection of Laboratory “Lactic Acid Bacteria and Probiotics”, the Stephan Angeloff Institute of Microbiology, Bulgarian Academy of Sciences (Sofia, Bulgaria), were selected (Table 13). The strains had been assessed previously, as candidate probiotics, according to the in vitro criteria recommended by the EFSA and the WHO guidelines. They were stored at −20 °C in MRS broth (Merck Group, Darmstadt, Germany) supplemented with 20% v/v sterile glycerol. Prior to the experiments, lactobacilli were subcultured twice in MRS broth (GM369, HiMedia, Mumbai, India) at 37 °C. An overnight exponential-phase culture (5% v/v inoculum) was used for the tests."}, "[4]": {"test_system": "Lactiplantibacillus plantarum", "assay": "MIC evaluation on lactobacilli (broth microdilution)", "assay_type": "cell-based", "procedure": "as §5"}, "HEK-293 cells": {"test_system": "HEK-293 cells", "assay": "Colony-forming unit assay", "assay_type": "cell-based, human", "details": "for Percentage of colonies, HEK-293: untreated control = 100%", "procedure": "as §4"}, "[5]": {"details": "at least 70% of cells viable, ISO 10993-5"}}, "note": "Where “and” joins values, the source holds several entries; their conditions need not be identical. Equal entries are not always repeated. Where two headings read alike, the source gives them in different places."}
{"compound": "CC(C)=CCCC1(C)C(CC=C(C)C)CC2C(=O)C1(C(=O)C(C)C)C(=O)C(CC=C(C)C)=C2O", "note": "(centres unmarked) [Olympiforin B]", "values": [{"measurement": "IC50", "setting": "CCL-1; Mus musculus, MTT assay", "result": 5.5, "unit": "mg/L"}, {"measurement": "Maximum tolerated concentration (MTC), CCL-1", "setting": "CCL-1; [5]", "result": 4.79, "unit": "µg/mL"}, {"measurement": "Colonies per well for CCL-1 cells", "setting": "CCL-1 cells; 1/2 × IC50, 48 h exposure", "result": 167}, {"measurement": "Percentage of colonies, CCL-1", "setting": "CCL-1 cells; 1/2 × IC50", "result": 106, "unit": "%"}, {"measurement": "Colonies per well for CCL-1 cells", "setting": "CCL-1 cells; 2 × IC50, 48 h exposure", "result": 61}, {"measurement": "Percentage of colonies, CCL-1", "setting": "CCL-1 cells; 2 × IC50", "result": 39, "unit": "%"}, {"measurement": "Colonies per well for CCL-1 cells", "setting": "CCL-1 cells; IC50, 48 h exposure", "result": 62}, {"measurement": "Percentage of colonies, CCL-1", "setting": "CCL-1 cells; IC50", "result": 40, "unit": "%"}, {"measurement": "IC50", "setting": "S. aureus biofilm; Staphylococcus aureus, read-out: Median Biofilm Inhibitory Concentration (MBIC50), S. aureus", "result": "0.07 µg/mL and 150 nM"}, {"measurement": "Minimum Biofilm Inhibitory Concentration (MBIC), S. aureus", "setting": "S. aureus biofilm; no visible biofilm", "result": "1 (MIC) µg/mL"}, {"measurement": "IC50", "setting": "tumor cell lines", "result": 1.3, "unit": "µM"}, {"measurement": "IC50", "setting": "[1]; MTT assay", "result": 18, "unit": "mg/L"}, {"measurement": "IC50", "setting": "[1]; converted to µM", "result": 38.4, "unit": "µM"}, {"measurement": "Maximum tolerated concentration (MTC), HGF", "setting": "[1]; [5]", "result": 16.06, "unit": "µg/mL"}, {"measurement": "IC50", "setting": "[2]; MTT assay", "result": 0.67, "unit": "mg/L"}, {"measurement": "IC50", "setting": "[2]; converted to µM", "result": 1.43, "unit": "µM"}, {"measurement": "Maximum tolerated concentration (MTC), HEK-293", "setting": "[2]; [5]", "result": 0.46, "unit": "µg/mL"}, {"measurement": "MIC", "setting": "[3]; strain Lf53, read-out: MIC, Lf53", "result": 2, "unit": "mg/L"}, {"measurement": "MIC", "setting": "[3]; strain Lf98, read-out: MIC, Lf98", "result": 2, "unit": "mg/L"}, {"measurement": "MIC", "setting": "[4]; strain Lpl 11, read-out: MIC, Lpl 11", "result": 2, "unit": "mg/L"}, {"measurement": "MIC", "setting": "[4]; strain Lpl 25, read-out: MIC, Lpl 25", "result": 2, "unit": "mg/L"}, {"measurement": "MIC", "setting": "[4]; strain Lpl.AC11S, read-out: MIC, Lpl.AC11S", "result": 2, "unit": "mg/L"}, {"measurement": "MIC", "setting": "[4]; strain Lpl.L6, read-out: MIC, Lpl.L6", "result": 4, "unit": "mg/L"}, {"measurement": "Colonies per well for HEK-293 cells", "setting": "HEK-293 cells; 1/2 × IC50, 48 h exposure", "result": 102}, {"measurement": "Percentage of colonies, HEK-293", "setting": "HEK-293 cells; 1/2 × IC50", "result": 97, "unit": "%"}, {"measurement": "Colonies per well for HEK-293 cells", "setting": "HEK-293 cells; 2 × IC50, 48 h exposure", "result": 80}, {"measurement": "Percentage of colonies, HEK-293", "setting": "HEK-293 cells; 2 × IC50", "result": 77, "unit": "%"}, {"measurement": "Colonies per well for HEK-293 cells", "setting": "HEK-293 cells; IC50, 48 h exposure", "result": 99}, {"measurement": "Percentage of colonies, HEK-293", "setting": "HEK-293 cells; IC50", "result": 95, "unit": "%"}]}
